Laboratory results reported in patent publication US20160128339A1, “CHROMOBACTERIUM FORMULATIONS, COMPOSITIONS, METABLOITES AND THEIR USES” (priority 2011, published 2016).

Legend:
[1] = tested on: TSSM; assay: TSSM control on field strawberry transplants; type: in vivo, Tetranychus urticae; details: rate/acre: abamectin 16 fl. oz., bifenzate 1 lb + INDUCE, COHERE 16 fl. oz., spiromesifin 12 fl. oz. + INDUCE, fenpyroximate 32 fl. oz., hexythiazox 6 oz.; for Number of eggs TSSM/leaflet day 90 / Number of motile TSSM/leaflet day 90: before first spray
Method: The efficacy of five traditional compounds and MBI-203 ingredients were evaluated for TSSM control on field strawberry transplants at the Florida Gulf Coast Research and Education Center. Seedlings were transplanted in the Field (day 0), Each 12.5-ft. plot consisted of 20 plants. Plots were infested four times from day 55 through day 71 with 10 to 20 motile TSSM per plant. Seventeen treatments of various rates and schedules of application of miticides, some combined with an adjuvant, and a non-treated check were replicated four times in a RCB design. Treatments were applied using a hand held sprayer with a spray wand outfitted with a nozzle containing a 45-degree core and a number four disc. The sprayer was pressurized by CO2, to 40 psi, and calibrated to deliver 100 gal per acre. Samples were collected weekly from day 90 before first spray through 2 wks after the last application of treatments (day 154). Samples consisted of ten randomly selected leaflets per plot and were collected from the middle one-third stratum of the plants. Motile and egg TSSM were brushed from the leaflets onto rotating sticky discs and counted. No phytotoxicity was observed.

[2] = tested on: green peach aphid (GPA) adults; assay: Green peach aphid progeny production on treated pepper leaf discs; type: in vivo, Myzus persicae; details: 1.0 μg/mL in acetone, 100 μL per leaf disc; 3 days
Method: MBI-203 at 3% v/v concentration was tested to determine the effect of the compound on the progeny production of green peach aphid (GPA) adults. Bioassays were performed by iteming pepper leaf discs with MBI-203 at 3% v/v. Pepper leaf discs (from 3-4 week old pepper plants) were cut in circles using a 23 mm cookie cutter, selecting a flat portion of tbe leaf to make sure the disc can be evenly laid flat on the agar plate. A 1% agar solution was melted by heating and 30 μL, poured in each petri plate (16 mm×35 mm vented, polystyrene petri plates), just enough to cover the bottom of the plate to prop leaf discs and maintain humidity. The agar was allowed to solidify by cooling at room temperature. Leaf disc treatment was performed by pouring the treatment solution into a glass petri dish. With the solution in the dish, leaf discs were treated by soaking, gently swirling the dish to completely soak and coat the leaf discs. Treatment of leaf discs by soaking was done for 1 minute. […] Progeny (early nymphal instars) were counted 3 days after adult exposure to treated leaf discs. […]
Two concentrations of pare violacein compound in acetone, 0.5 μg/mL and 1.0 μg/mL were used in the test to determine the effect of the compound on the progeny production of green peach aphid (GPA) adults. […] Progeny (early nymphal instars) were counted 3 days after adult exposure to treated leaf discs. […]

[3] = tested on: Green Peach Aphid adults (GPA); assay: Green peach aphid choice repellency bioassay of extracts, fractions and pure compound; type: in vivo, Myzus persicae; details: violacein purified from F9 and F10
Method: Choice bioassays on Green Peach Aphid adults (GPA) were done using MBI-203 fractions and pure compound. Fractions and pure compound (violacein) obtained from the extraction of cell paste of C. substugae (MBI-203) were tested for insect efficacy through repellency bioassays. Pepper leaf discs (from 3-4 week old pepper plants) were cut in circles using a 23 mm cookie cutter, selecting a flat portion of the leaf to make sure the leaf disc can be evenly laid flat into the agar plate after treatment of the compound. One percent (%) agar in water was prepared. The 1% agar solution was melted by heating and poured into the 145 mm×20 mm petri plate, enough to cover the bottom surface of the plate to prop leaf discs and maintain humidity. The agar was allowed to solidify by cooling at room temperature.
Leaf disc treatment was done by pipetting gently 100 μL of MBI-203 extract unto the underside of the leaf disc. Treated leaf discs were then allowed to dry off by laying the disc flat unto a labeled 12-well plate cover. […]
All tests were done in three replications. […] Data for repellency of adults and nymphs was determined 24 hours post exposure of adults on treated leaf discs. The number of aphids (adults and nymphs) was counted and data recorded and analyzed, The percent repellency was computed as: % Repellency=100-{([N+A]“on petri dish”)/[N+A]“on petri dish” X100}, […]

[4] = tested on: M. hapla nematodes; assay: In vitro 96-well nematode immobility bioassay; type: in vivo; details: M. hapla J2; 100 μl of 4 mg/ml sample; 24 hour at 25° C.
Method: The fractions and pure compounds were dissolved in Dimethylsulfoxide (DMSO) and were tested in an in vitro 96-well plastic cell-culture plate bioassay. Around 15-20 nematodes in a 50 μl water solution were exposed to 100 μl of a 4 mg/ml of sample for a 24 hour period at 25° C. Once the incubation period was completed, results were recorded based on a visual grading of immobility of the juvenile nematodes (J2°s) in each well treated with sampler; each treatment was tested in well repetitions of four. […] Three controls were included in each trial; 1 positive (1% Avid) & 2 negative (DMSO & water). Both trials (T1) and (T2) were carried out using M. hapla nematodes.

Molecule | Number of eggs TSSM/leaflet day 90 [1] | Number of motile TSSM/leaflet day 90 [1] | Number of eggs TSSM/leaflet day 98 [1] | Number of eggs TSSM/leaflet day 105 [1] | Number of eggs TSSM/leaflet day 111 [1] | Number of eggs TSSM/leaflet day 118 [1] | Number of eggs TSSM/leaflet day 125 [1] | Number of eggs TSSM/leaflet day 132 [1] | Number of eggs TSSM/leaflet day 139 [1] | Number of eggs TSSM/leaflet day 146 [1] | Number of eggs TSSM/leaflet day 154 [1] | Number of motile TSSM/leaflet day 98 [1] | Number of motile TSSM/leaflet day 105 [1] | Number of motile TSSM/leaflet day 111 [1] | Number of motile TSSM/leaflet day 118 [1] | Number of motile TSSM/leaflet day 125 [1] | Number of motile TSSM/leaflet day 132 [1] | Number of motile TSSM/leaflet day 139 [1] | Number of motile TSSM/leaflet day 146 [1] | Number of motile TSSM/leaflet day 154 [1] | further results
COc1ccc(-c2ccccc2)cc1NNC(=O)OC(C)C [Bifenzate] | 3.8 | 3.8 | 6.0 | 6.0 | 0.8 | 8.3 | 20.5 | 3.01 | 28.0 | 66.5 | 128.3 | 6.0 | 6.0 | 0.8 | 8.3 | 20.5 | 3.0 | 28.0 | 66.5 | 128.3 | 
Cc1nn(C)c(Oc2ccccc2)c1C=NOCc1ccc(C(=O)OC(C)(C)C)cc1 [Fenpyroximate] | 9.3 | 4.5 | 11.8 | 12.3 | 12.5 | 1.0 | 34.5 | 20.8 | 28.5 | 97.3 | 240.8 | 3.8 | 6.5 | 2.8 | 2.0 | 7.3 | 5.3 | 10.0 | 34.3 | 145.3 | 
Cc1cc(C)c(C2=C(OC(=O)CC(C)(C)C)C3(CCCC3)OC2=O)c(C)c1 [Spiromesifin] | 7.3 | 2.8 | 5.3 | 7.3 | 5.0 | 1.5 | 2.3 | 2.8 | 0.8 | 4.5 | 25.5 | 2.3 | 2.0 | 2.3 | 0.5 | 0.8 | 0.5 | 2.5 | 2.8 | 6.0 | 
C[C@@H]1[C@@H](c2ccc(Cl)cc2)SC(=O)N1C(=O)NC1CCCCC1 [Hexythiazox] | 2.0 | 2.0 | 8.5 | 15.0 | 17.0 | 22.0 | 71.5 | 128.5 | 281.5 | 393.5 | 533.0 | 1.8 | 2.8 | 6.0 | 13.8 | 23.0 | 57.5 | 103.3 | 196.0 | 285.5 | 
Abamectin | 6.8 | 8.5 | 17.0 | 26.5 | 12.0 | 1.3 | 2.3 | 6.5 | 3.5 | 3.5 | 41.3 | 4.5 | 6.3 | 5.3 | 0.5 | 0.5 | 3.0 | 6.3 | 6.8 | 15.3 | 
O=C1NC(c2c[nH]c3ccc(O)cc23)=C/C1=C1\C(=O)Nc2ccccc21 [violacein] |  |  |  |  |  |  |  |  |  |  |  |  |  |  |  |  |  |  |  |  | reduction of progeny production compared to the negative control [2]: about 50%; repellency [3]: 300%
Oligo-(β-hydroxybutyric acid) |  |  |  |  |  |  |  |  |  |  |  |  |  |  |  |  |  |  |  |  | immobility [4]: 75%
